Legend:
[1] = molecular target: T1, mitochondrial pyruvate carrier MPC (Mus musculus, UniProt P63030+Q9D023); assay: mitochondrial pyruvate uptake in intact astrocytes, mito-PyronicSF fluorescence; assay type: cell-based; conditions: 3 mM extracellular pyruvate; KRH buffer pH 7.4; 22–25°C
T1 construct: gene Mpc1; native carrier in intact cultured cortical astrocytes; read out as mitochondrial pyruvate uptake with mito-PyronicSF; subunit composition not determined
T1 sequence (P63030 2-109): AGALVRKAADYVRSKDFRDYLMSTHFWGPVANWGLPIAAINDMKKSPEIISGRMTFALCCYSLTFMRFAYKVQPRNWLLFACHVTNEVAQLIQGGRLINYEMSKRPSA
T1 sequence (Q9D023 1-127): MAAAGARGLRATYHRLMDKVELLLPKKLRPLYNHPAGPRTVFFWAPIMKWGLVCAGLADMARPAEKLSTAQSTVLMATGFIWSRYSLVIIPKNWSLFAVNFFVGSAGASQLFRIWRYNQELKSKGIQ

[2] = molecular target: T1, mitochondrial pyruvate carrier MPC; assay: as above; assay type: cell-based; conditions: 3 mM extracellular pyruvate; KRH buffer pH 7.4; 22–25°C; remark: listed apart in the source

Row | % uptake inhibition at 30 μM [1] | % uptake inhibition at 10 μM [2] | SMILES
1 | 67% | – | CN(CCOc1ccc(CC2SC(=O)NC2=O)cc1)c1ccccn1 (centres unmarked) [rosiglitazone]
2 | – | 69% | N#C/C(=C\c1cn(-c2ccccc2)c2ccccc12)C(=O)O [UK-5099]

Source: PMC7077990 (eLife, 2020)
